Experimental findings from publication PMC4376724, “Differential Phenotypic and Functional Profiles of TcCA-2 -Specific Cytotoxic CD8^+ T Cells in the Asymptomatic versus Cardiac Phase in Chagasic Patients” (PLoS ONE, 2015) are described below.

For this test, the system named is PBMC from HLA-A*02:01 Chagas disease patients and healthy donors. Description: Granzyme B ELISPOT in PBMC. The test is classed as cell-based, human. Conditions: 30 h, non-peptide control spots subtracted. The procedure:
For the screening of the recognition of TcCA-2 epitopes by Chagas disease patients, 10 HLA-A*02:01 adult patients in the asymptomatic phase of the disease (IND) were enrolled. For cytotoxicity, functional activity determinations and phenotypic characterization another group of 19 HLA-A*02:01 adults Chagas disease patients and 9 healthy donors were analyzed. These patients were at the chronic stage of the disease and were considered to be at the asymptomatic phase (IND, n = 8) if there was no evidence of having cardiac or gastrointestinal disorders. Chronic Chagas cardiomyopathy patients (CCC, n = 11) were stratified into G1 to G3 stages following Kuschnir classification according to clinical criteria and radiological, electrocardiographic and echocardiography analyses. The number of patients was the one recommended by the Hospital Ethical Committee. […] The patients were enrolled in both studies (functional and phenotypic characterization, IND n = 6 and CCC n = 7) when the available number of purified PBMC (limited by the cellular number isolated from each subject) was enough for both analyses. Another four CCC patients had to be enrolled to perform the phenotypic analysis in order to reach statistical significance.
The frequency of Granzyme B (GzB) producing cells was evaluated by ELISPOT assays using cryopreserved PBMC from Chagas disease patients and healthy donors as control. This protocol was carried out as described in [20]. Briefly, 96-well PVDF membrane-bottom plates (Millipore) were pre-wetted with 35% ethanol and washed five times with PBS. Subsequently, plates were coated with 100 μL of anti-GzB (5 μg/mL) monoclonal antibody (Mabtech) and incubated overnight at 4°C. Plates were washed with PBS and incubated with 200 μL/well of blocking solution (RPMI-1640-10% FCS) at room temperature for 30 minutes. Afterwards, 5 × 10^4 PBMC/well were added and incubated with 1 μM of each peptide for 30 h at 37°C with 5% CO2, in triplicates. As a positive control, the PBMC were stimulated with 50 ng/ml phorbol 12-myristate 13-acetate (PMA, Sigma) and 500 ng/ml ionomycin (Sigma), or 10 μg/mL of phytohaemaglutinin (PHA, Sigma). Supernatants were harvested and aliquoted at -80°C for subsequent cytokine secretion profile determination. After five washes, 100 μL/well of a 1 μg/mL solution of biotinylated GzB-specific antibody (Mabtech) was added in 0.5% iFCS in PBS, and the plates were incubated for 2 h at room temperature. Wells were extensively washed with PBS and incubated with 100 μL/well streptavidin-alkaline phosphatase (Sigma) at dilution of 1:6000 for 1 h at room temperature. After washing (5x) with PBS, 50 μL/well of substrate solution (NBT-BCIP substrate, Sigma) were added. The wells were incubated for 20–30 min at room temperature in the dark. The reaction was stopped by rinsing the plates with cold tap water. The spots were visualized in an AXIO PLAN 2 Imagine microscope and quantified using KS ELISPOT software. The results are expressed as the number of peptide-induced spots forming cell (SFC) x10^6 PBMC after subtracting the spot number of peptide un-stimulated PBMCs (basal response). The results were considered positive when a minimum of 20 SFCx10^6 PBMCs and of at least over twofold basal spot numbers were detected.
The cytotoxic activity of the CD8^+ T cells specific for these four TcCA-2-derived epitopes was evaluated by secretion of GzB through ELISPOT assays. Thus, PBMC from 15 HLA-A*02:01 chagasic patients (8 IND and 7 CCC) and 9 healthy donors were incubated with the peptides under study. A positive GzB response was detected in 3 patients (2 IND and 1 CCC) out of 10 in response to incubation with the TcCA-2_657-666 peptide, 5 patients (3 IND and 2 CCC) out of 14 in response to the TcCA-2_442-451 peptide, 3 patients (3 CCC) out of 14 in response to the TcCA-2_607-615 peptide and 2 patients (2 IND) out of 11 in response to the TcCA-2_273-281 peptide (Table 3). Cytotoxic activities were not detected in any healthy donor. […]

Setting [1] is: PBMC of patient CCC I 770, 1 μM peptide.
Where [2] appears, read: PBMC of patient CCC I 861, 1 μM peptide.
[3] abbreviates: PBMC of patient CCC I 884, 1 μM peptide.
Setting [4] is: PBMC of patient CCC III 509, 1 μM peptide.
Where [5] appears, read: PBMC of patient IND 365, 1 μM peptide.
The mark [6] stands for this setting: PBMC of patient IND 388, 1 μM peptide.
The mark [7] stands for this setting: PBMC of patient IND 510, 1 μM peptide.
Setting [8] is: PBMC of patient IND 535, 1 μM peptide.
The mark [9] stands for this setting: PBMC of patient IND 571, 1 μM peptide.
[10] abbreviates: PBMC of patient IND 917, 1 μM peptide.
The mark [11] stands for this setting: PBMC of subject HD 001, 1 μM peptide.
Where [12] appears, read: PBMC of subject HD 004, 1 μM peptide.
The mark [13] stands for this setting: PBMC of subject HD 005, 1 μM peptide.
[14] abbreviates: PBMC of subject HD 006, 1 μM peptide.
Setting [15] is: PBMC of subject HD 008, 1 μM peptide.
Where [16] appears, read: PBMC of subject HD 011, 1 μM peptide.
Where [17] appears, read: PBMC of subject HD 340, 1 μM peptide.
Where [18] appears, read: PBMC of subject HD 664, 1 μM peptide.
Setting [19] is: PBMC of patient CCC I 456, 1 μM peptide.
Where [20] appears, read: PBMC of patient CCC II 142, 1 μM peptide.
[21] abbreviates: PBMC of patient CCC III 797, 1 μM peptide.
[22] abbreviates: PBMC of patient IND 265, 1 μM peptide.
Where [23] appears, read: PBMC of patient IND 283, 1 μM peptide.

Consider ALQVTNHRYL [TcCA-2_657-666], for which the GzB runs as follows: under setting [1], -7 SFC/10^6; under setting [2], 50 SFC/10^6; under setting [3], 0 SFC/10^6; under setting [4], 0 SFC/10^6; under setting [5], 0 SFC/10^6; under setting [6], 7 SFC/10^6. Besides, the GzB by setting is: under setting [7], -7 SFC/10^6; under setting [8], 67 SFC/10^6; under setting [9], 83 SFC/10^6; under setting [10], -10 SFC/10^6; under setting [11], 0 SFC/10^6; under setting [12], -7 SFC/10^6. The GzB was -40 SFC/10^6 under setting [13]; 0 SFC/10^6 under setting [14]; -47 SFC/10^6 under setting [15]; -7 SFC/10^6 under setting [16]; 0 SFC/10^6 (PBMC of subject HD 017, 1 μM peptide); 1 SFC/10^6 under setting [17]. Under setting [18], this sequence showed a GzB of 0 SFC/10^6.
On to AAAGDKLSL [TcCA-2_273-281], for which the GzB by setting is: under setting [19], 13 SFC/10^6; under setting [1], -7 SFC/10^6; under setting [2], 8 SFC/10^6; under setting [3], 7 SFC/10^6; under setting [4], 0 SFC/10^6; under setting [5], 7 SFC/10^6. Also, the GzB is 33 SFC/10^6 under setting [6]; -20 SFC/10^6 under setting [7]; -27 SFC/10^6 under setting [8]; 67 SFC/10^6 under setting [9]; 13 SFC/10^6 under setting [10]; 1 SFC/10^6 under setting [11]. For the same sequence, the GzB is 0 SFC/10^6 under setting [12]; -47 SFC/10^6 under setting [13]; -7 SFC/10^6 under setting [14]; -47 SFC/10^6 under setting [15]; -20 SFC/10^6 under setting [16]; 0 SFC/10^6 under setting [17]. Under setting [18], this sequence had a GzB of 0 SFC/10^6.
In turn, TVFDASRSTV [TcCA-2_442-451] gave a GzB under setting [19] of -7 SFC/10^6; a GzB under setting [1] of 13 SFC/10^6; a GzB under setting [2] of 0 SFC/10^6; a GzB under setting [3] of 7 SFC/10^6; a GzB under setting [20] of 80 SFC/10^6; a GzB under setting [4] of 50 SFC/10^6. Further, the GzB under setting [21] is 7 SFC/10^6; the GzB under setting [22] was -13 SFC/10^6; the GzB under setting [23] is listed as 47 SFC/10^6; the GzB under setting [5] was 27 SFC/10^6; the GzB under setting [6] worked out at 0 SFC/10^6; the GzB under setting [7] came out at 0 SFC/10^6. The GzB was -13 SFC/10^6 under setting [8]; 40 SFC/10^6 under setting [10]; 0 SFC/10^6 under setting [11]; 0 SFC/10^6 under setting [12]; -40 SFC/10^6 under setting [13]; -7 SFC/10^6 under setting [14]. Also, the GzB is -73 SFC/10^6 under setting [15], -20 SFC/10^6 under setting [16], 1 SFC/10^6 under setting [17] and 1 SFC/10^6 under setting [18].
For ALRNLRVFL [TcCA-2_607-615], the GzB was 13 SFC/10^6 under setting [19]; 0 SFC/10^6 under setting [1]; -8 SFC/10^6 under setting [2]; 0 SFC/10^6 under setting [3]; 53 SFC/10^6 under setting [20]; 25 SFC/10^6 under setting [4]. In addition, the GzB reads like this: under setting [21], 27 SFC/10^6; under setting [22], -100 SFC/10^6; under setting [23], -20 SFC/10^6; under setting [5], 7 SFC/10^6; under setting [6], 13 SFC/10^6; under setting [7], 13 SFC/10^6. Besides, the GzB by setting is: under setting [8], -7 SFC/10^6; under setting [10], -20 SFC/10^6; under setting [11], 0 SFC/10^6; under setting [12], -7 SFC/10^6; under setting [13], -47 SFC/10^6; under setting [14], 7 SFC/10^6. The sequence also displayed a GzB under setting [15] of -70 SFC/10^6, a GzB under setting [16] of -7 SFC/10^6, a GzB under setting [17] of 0 SFC/10^6 and a GzB under setting [18] of 0 SFC/10^6.
